Experiments:
Assay type in all cases: cell-based
[1] = molecular target: T1, SMARCA2 (Homo sapiens, UniProt P51531); test: MSD SMARCA2 degradation in A549 cell line; settings: for Dmax: A549, A549 cells; for Dmax / DC50: 24 h; for DC50: read-out: SMARCA2 MSD A549 degradation 24 h: Average external-Abs DC50
In short: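 A549 cells treated 24 h with compound, 3-fold series from 1000 nM. Lysates captured on MSD plates and SMARCA2 quantified with anti-SMARCA2 and SULFO-TAG secondary antibodies (electrochemiluminescence). DC50 and Dmax (% degradation at 24 h) reported as letter bins.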

[2] = molecular target: T2, SMARCA4 (Homo sapiens, UniProt P51532); test: SMARCA4 Western blot degradation in MV4-11 cells; settings: for Dmax: MV4-11, MV4-11 cells, read-out: SMARCA4 MSD MV411 degradation 24 h: average Dmax %; for Dmax / DC50: 24 h; for DC50: read-out: SMARCA4 MSD MV411 degradation 24 h: Mean external-Abs DC50
T2 construct: SMARCA2/SMARCA4 protein degradation selectivity in MV4-11 cells; endogenous in cells; host or cells: MV4-11
In short: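 24 h compound exposure, MV4-11; RIPA lysates → SDS-PAGE → NC membrane; anti-SMARCA2/BRM, anti-BRG1, β-actin loading control; LI-COR fluorescence read. DC50 and Dmax at 24 h reported as letter bins.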

[3] = molecular target: T1, SMARCA2; test: SMARCA2 Western blot degradation in MV4-11 cells; parameters: SMARCA2/SMARCA4 protein degradation selectivity in MV4-11 cells; endogenous in cells; host or cells: MV4-11; settings: for Dmax: MV4-11, MV4-11 cells, read-out: SMARCA2 MSD MV411 degradation 24 h: average Dmax %; for DC50: read-out: SMARCA2 MSD MV411 degradation 24 h: Mean external-Abs DC50; for Selectivity in MV411: SMARCA2/4 selectivity

T2 sequence (P51532 whole entry): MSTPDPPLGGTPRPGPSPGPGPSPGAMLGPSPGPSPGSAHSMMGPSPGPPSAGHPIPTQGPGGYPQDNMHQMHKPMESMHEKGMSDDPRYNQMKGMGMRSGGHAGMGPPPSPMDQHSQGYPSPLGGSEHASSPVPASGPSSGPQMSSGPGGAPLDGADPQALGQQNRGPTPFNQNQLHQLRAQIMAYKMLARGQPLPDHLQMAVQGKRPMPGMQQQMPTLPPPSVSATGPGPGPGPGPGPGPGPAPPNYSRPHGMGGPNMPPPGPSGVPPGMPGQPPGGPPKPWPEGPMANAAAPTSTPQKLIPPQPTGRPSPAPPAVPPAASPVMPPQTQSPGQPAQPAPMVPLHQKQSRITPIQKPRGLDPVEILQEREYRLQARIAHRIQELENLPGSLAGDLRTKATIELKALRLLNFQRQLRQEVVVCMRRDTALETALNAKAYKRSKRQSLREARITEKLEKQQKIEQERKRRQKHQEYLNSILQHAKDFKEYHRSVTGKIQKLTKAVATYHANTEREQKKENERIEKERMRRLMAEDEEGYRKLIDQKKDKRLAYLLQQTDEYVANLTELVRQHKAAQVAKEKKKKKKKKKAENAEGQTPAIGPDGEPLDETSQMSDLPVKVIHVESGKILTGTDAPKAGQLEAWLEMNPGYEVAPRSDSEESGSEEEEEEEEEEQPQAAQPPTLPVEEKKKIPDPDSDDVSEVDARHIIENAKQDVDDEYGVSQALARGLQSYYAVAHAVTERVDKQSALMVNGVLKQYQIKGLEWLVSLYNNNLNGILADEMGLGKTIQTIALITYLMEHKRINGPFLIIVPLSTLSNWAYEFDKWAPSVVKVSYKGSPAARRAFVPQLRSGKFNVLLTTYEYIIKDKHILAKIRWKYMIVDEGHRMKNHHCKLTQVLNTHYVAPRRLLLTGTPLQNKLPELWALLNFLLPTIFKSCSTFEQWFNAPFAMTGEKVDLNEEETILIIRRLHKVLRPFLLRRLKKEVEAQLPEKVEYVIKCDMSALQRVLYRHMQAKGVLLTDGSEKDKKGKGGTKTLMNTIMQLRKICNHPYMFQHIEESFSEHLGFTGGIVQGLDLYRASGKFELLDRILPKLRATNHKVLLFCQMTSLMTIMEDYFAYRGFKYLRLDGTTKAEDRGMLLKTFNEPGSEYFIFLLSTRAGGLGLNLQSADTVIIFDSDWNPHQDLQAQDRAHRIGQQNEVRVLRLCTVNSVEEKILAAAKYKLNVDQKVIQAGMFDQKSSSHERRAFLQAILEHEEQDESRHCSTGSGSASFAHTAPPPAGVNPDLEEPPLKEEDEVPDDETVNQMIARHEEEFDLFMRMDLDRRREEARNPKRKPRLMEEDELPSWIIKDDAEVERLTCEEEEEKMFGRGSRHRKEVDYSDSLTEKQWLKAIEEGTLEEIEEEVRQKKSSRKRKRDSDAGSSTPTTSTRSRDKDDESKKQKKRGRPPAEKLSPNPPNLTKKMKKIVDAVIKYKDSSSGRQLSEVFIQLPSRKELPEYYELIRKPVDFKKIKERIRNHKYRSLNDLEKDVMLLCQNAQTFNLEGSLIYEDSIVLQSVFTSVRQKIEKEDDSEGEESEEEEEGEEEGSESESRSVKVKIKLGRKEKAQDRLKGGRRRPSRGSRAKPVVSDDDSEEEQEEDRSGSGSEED
T1 sequence (P51531 whole entry): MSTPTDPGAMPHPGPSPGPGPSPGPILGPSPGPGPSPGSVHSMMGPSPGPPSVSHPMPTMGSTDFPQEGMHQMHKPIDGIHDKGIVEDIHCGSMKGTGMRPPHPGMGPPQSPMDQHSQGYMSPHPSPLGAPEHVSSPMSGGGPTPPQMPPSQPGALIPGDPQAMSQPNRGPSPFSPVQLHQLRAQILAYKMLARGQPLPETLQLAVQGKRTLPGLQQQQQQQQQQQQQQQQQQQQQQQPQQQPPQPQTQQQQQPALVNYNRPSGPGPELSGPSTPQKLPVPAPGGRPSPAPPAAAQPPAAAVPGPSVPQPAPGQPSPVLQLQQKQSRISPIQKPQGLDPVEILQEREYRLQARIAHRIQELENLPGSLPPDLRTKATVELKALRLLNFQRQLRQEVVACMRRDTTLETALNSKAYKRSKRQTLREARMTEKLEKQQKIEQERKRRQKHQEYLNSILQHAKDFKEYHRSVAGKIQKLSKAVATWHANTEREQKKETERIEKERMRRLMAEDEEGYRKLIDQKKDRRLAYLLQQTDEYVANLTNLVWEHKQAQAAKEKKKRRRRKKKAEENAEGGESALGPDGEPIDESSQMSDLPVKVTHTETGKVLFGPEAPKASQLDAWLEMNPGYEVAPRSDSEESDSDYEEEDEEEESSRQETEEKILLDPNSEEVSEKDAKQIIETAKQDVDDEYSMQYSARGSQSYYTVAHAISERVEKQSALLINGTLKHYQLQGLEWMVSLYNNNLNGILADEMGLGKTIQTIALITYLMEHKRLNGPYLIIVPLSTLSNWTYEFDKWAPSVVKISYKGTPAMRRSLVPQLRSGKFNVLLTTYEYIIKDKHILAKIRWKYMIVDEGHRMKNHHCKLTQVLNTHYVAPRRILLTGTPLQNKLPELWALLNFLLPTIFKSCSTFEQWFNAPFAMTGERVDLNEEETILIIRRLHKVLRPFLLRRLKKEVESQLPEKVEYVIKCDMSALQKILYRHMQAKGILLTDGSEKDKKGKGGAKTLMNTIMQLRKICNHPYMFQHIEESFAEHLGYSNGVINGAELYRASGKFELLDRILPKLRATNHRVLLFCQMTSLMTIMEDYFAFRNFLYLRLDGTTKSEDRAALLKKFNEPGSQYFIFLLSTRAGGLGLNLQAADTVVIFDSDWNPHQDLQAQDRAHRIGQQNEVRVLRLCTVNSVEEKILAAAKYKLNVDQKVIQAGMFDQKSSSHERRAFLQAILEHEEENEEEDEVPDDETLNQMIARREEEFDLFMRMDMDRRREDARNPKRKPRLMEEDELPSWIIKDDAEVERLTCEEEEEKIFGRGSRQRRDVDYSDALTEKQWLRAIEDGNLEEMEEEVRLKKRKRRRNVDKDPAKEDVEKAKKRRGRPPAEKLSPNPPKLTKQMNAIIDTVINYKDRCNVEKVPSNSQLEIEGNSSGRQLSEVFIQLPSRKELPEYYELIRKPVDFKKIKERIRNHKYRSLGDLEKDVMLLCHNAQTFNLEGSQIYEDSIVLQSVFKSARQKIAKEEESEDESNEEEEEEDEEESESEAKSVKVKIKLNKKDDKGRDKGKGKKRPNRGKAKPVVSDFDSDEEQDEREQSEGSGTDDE

SMILES	Dmax [1] [%]	DC50 ([1]; A549 cells) [nM]	Dmax [2] [%]	DC50 ([2]; MV4-11 cells) [nM]	Dmax ([3]; 24 h) [%]	DC50 ([3]; MV4-11 cells, 24 h) [nM]	Selectivity in MV411 ([3]; MV4-11 cells)	SMARCA2 MSD A549 degradation 24 h: Average Dmax % ([1]; A549 cells)	SMARCA4 MSD MV411 degradation 24 h: average Dmax % ([2]; MV4-11 cells)	SMARCA2 MSD MV411 degradation 24 h: average Dmax % ([3]; MV4-11 cells, 24 h)
C#Cc1ccc(C2(NC(=O)[C@@H]3C[C@@H](O)CN3C(=O)[C@@H](NC(=O)N3CC4(CC(N5CCC(N6CCC(N7CCc8[nH]c9nnc(-c%10ccccc%10O)cc9c8[C@H]7C)CC6)CC5)C4)C3)C(C)(C)C)CC2)cc1 [I-210]	> 90	> 100	< 50	> 100	50 to 70	10 to 100	C (C (10-100 fold))			
C#Cc1ccc([C@H](C)NC(=O)[C@@H]2C[C@@H](O)CN2C(=O)[C@@H](NC(=O)N2CC3(CC(N4CCC(N5CCC(N6CCc7[nH]c8nnc(-c9ccccc9O)cc8c7[C@H]6C)CC5)CC4)C3)C2)C(C)(C)C)cc1 [I-212]	> 90	> 100	< 50	> 100	70 to 90	10 to 100	C (C (10-100 fold))			
C#Cc1ccc(CNC(=O)[C@@H]2C[C@@H](O)CN2C(=O)[C@@H](NC(=O)CN2CC3(CC(N4CCC(N5CCC(N6CCN7c8cc(-c9ccccc9O)nnc8NC[C@H]7C6)CC5)CC4)C3)C2)C(C)(C)C)cc1 [I-214, (2S,4R)—N-(4-ethynylbenzyl)-4-hydroxy-1-((S)-2-(2-(6-(4-((S)-2-(2-hydroxyphenyl)-6a,7,9,10-tetrahydro-5H-pyrazino[1′,2′:4,5]pyrazino[2,3-c]pyridazin-8(6H)-yl)-[1,4′-bipiperidin]-1′-yl)-2-azaspiro[3.3]heptan-2-yl)acetamido)-3,3-dimethylbutanoyl)pyrrolidine-2-carboxamide]	> 90	> 100	< 50	> 100	70 to 90	10 to 100	B (B (>100-500 fold))			
C#Cc1ccc(CNC(=O)[C@@H]2C[C@@H](O)CN2C(=O)[C@@H](NC(=O)N2CC3(CC(N4CCC(N5CCC(N6CCN7c8cc(-c9ccccc9O)nnc8NC[C@H]7C6)CC5)CC4)C3)C2)C(C)(C)C)cc1 [I-215]	> 90	50 to 100	70 to 90	10 to 100	> 90	1 to 10	C (C (10-100 fold))			
C#Cc1ccc(CNC(=O)[C@@H]2C[C@@H](O)CN2C(=O)[C@@H](NC(=O)N2CCN(CC3CCN([C@H]4CC[C@@H](N5CCN6c7cc(-c8ccccc8O)nnc7NC[C@H]6C5)CC4)CC3)CC2)C(C)(C)C)cc1 [I-216]	70 to 90	> 100	< 50	> 100	< 50	> 100	C (C (10-100 fold))			
C#Cc1ccc(CNC(=O)[C@@H]2C[C@@H](O)CN2C(=O)[C@@H](NC(=O)N2CCN(CC3CCN([C@H]4CC[C@H](N5CCN6c7cc(-c8ccccc8O)nnc7NC[C@H]6C5)CC4)CC3)CC2)C(C)(C)C)cc1 [I-217]	70 to 90	> 100	< 50	> 100	50 to 70	10 to 100	C (C (10-100 fold))			
C#Cc1ccc(CNC(=O)[C@@H]2C[C@@H](O)CN2C(=O)[C@@H](NC(=O)N2CCO[C@@H](CN3CCC(N4CCC(N5CCN6c7cc(-c8ccccc8O)nnc7NC[C@H]6C5)CC4)CC3)C2)C(C)(C)C)cc1 [I-218]	50 to 70	> 100	< 50	> 100	< 50	> 100	C (C (10-100 fold))			
C#Cc1ccc(CNC(=O)[C@@H]2C[C@@H](O)CN2C(=O)[C@@H](NC(=O)N2CCO[C@H](CN3CCC(N4CCC(N5CCN6c7cc(-c8ccccc8O)nnc7NC[C@H]6C5)CC4)CC3)C2)C(C)(C)C)cc1 [I-219]	50 to 70	> 100	< 50	> 100	< 50	> 100	C (C (10-100 fold))			
C#Cc1ccc(CNC(=O)[C@@H]2C[C@@H](O)CN2C(=O)[C@@H](NC(=O)[C@H]2CCC3(CC2)C[C@H](N2CCC(N4CCC(N5CCN6c7cc(-c8ccccc8O)nnc7NC[C@H]6C5)CC4)CC2)C3)C(C)(C)C)c(Cl)c1 (stereo partly shown) [I-222]		> 100		> 100		10 to 100	B (B (>100-500 fold))	A (A (>90% degradation))	D (D (<50% degradation))	B (B (>70-90% degradation))
C#Cc1ccc(CNC(=O)[C@@H]2C[C@@H](O)CN2C(=O)[C@@H](NC(=O)N2CC3(CC(N4CCC(N5CC6(CC(N7CCN8c9cc(-c%10ccccc%10O)nnc9NC[C@H]8C7)C6)C5)CC4)C3)C2)C(C)(C)C)cc1 [I-224]	> 90	50 to 100	70 to 90	10 to 100	70 to 90	1 to 10	C (C (10-100 fold))			
C#Cc1ccc(CNC(=O)[C@@H]2C[C@@H](O)CN2C(=O)[C@@H](NC(=O)N2CC3(CC(N4CCC(c5cnc(N6CCc7[nH]c8nnc(-c9ccccc9O)cc8c7[C@@H]6C)nc5)CC4)C3)C2)C(C)(C)C)c(OCCCOC)c1 [I-227]	> 90	50 to 100	> 90	> 100	70 to 90	10 to 100	D (D (<10 fold))			
C#Cc1ccc(CNC(=O)[C@@H]2C[C@@H](O)CN2C(=O)[C@@H](NC(=O)N2CC3(CC(N4CCC(c5cnc(N6CCc7[nH]c8nnc(-c9ccccc9O)cc8c7[C@@H]6C)nc5)CC4)C3)C2)C(C)(C)C)cc1 [I-228]	> 90	> 100	> 90	> 100	70 to 90	10 to 100	D (D (<10 fold))			
C#Cc1ccc(CNC(=O)[C@@H]2C[C@@H](O)CN2C(=O)[C@@H](NC(=O)[C@H]2CC3(C2)C[C@H](N2CCN(C(=O)CN4CCN5c6cc(-c7ccccc7O)nnc6NC[C@H]5C4)CC2)C3)C(C)(C)C)cc1 (stereo partly shown) [I-240]		> 100		10 to 100		1 to 10	D (D (<10 fold))			
C#Cc1ccc(CNC(=O)[C@@H]2C[C@@H](O)CN2C(=O)[C@@H](NC(=O)[C@H]2CC3(C2)C[C@H](N2CCC(N4CCC(N5CCN6c7cc(-c8ccccc8O)nnc7NC[C@H]6C5)CC4)CC2)C3)C(C)(C)C)c(O)c1 (stereo partly shown) [I-242]		50 to 100		10 to 100		1 to 10	C (C (10-100 fold))			
C#Cc1ccc(CNC(=O)[C@@H]2C[C@@H](O)CN2C(=O)[C@@H](NC(=O)CCCCCCCN2CCC(N3CC4(CC(N5CCN6c7cc(-c8ccccc8O)nnc7NC[C@H]6C5)C4)C3)CC2)C(C)(C)C)cc1 [I-243]	> 90	50 to 100	< 50	> 100	70 to 90	1 to 10	B (B (>100-500 fold))			
C#Cc1ccc([C@H](C)NC(=O)[C@@H]2C[C@@H](O)CN2C(=O)[C@@H](NC(=O)N2CC3(C2)CN(C2CCN(c4cnc(N5CCc6[nH]c7nnc(-c8ccccc8O)cc7c6[C@H]5C)nc4)CC2)C3)C(C)(C)C)cc1 [I-249]	> 90	10 to 50	70 to 90	> 100	> 90	10 to 100	C (C (10-100 fold))			
C#Cc1ccc([C@H](C)NC(=O)[C@@H]2C[C@@H](O)CN2C(=O)[C@@H](NC(=O)N2CC3(CC(N4CCC(c5cnc(N6CCc7[nH]c8nnc(-c9ccccc9O)cc8c7[C@H]6C)cn5)CC4)C3)C2)C(C)(C)C)cc1 [I-250]	> 90	10 to 50	70 to 90	> 100	> 90	10 to 100	C (C (10-100 fold))			
C#Cc1ccc(CNC(=O)[C@@H]2C[C@@H](O)CN2C(=O)[C@@H](NC(=O)CCCCCN2CCC(N3CC4(CC(N5CCN6c7cc(-c8ccccc8O)nnc7NC[C@H]6C5)C4)C3)CC2)C(C)(C)C)cc1 [I-251]	> 90	> 100	< 50	> 100	70 to 90	10 to 100	B (B (>100-500 fold))			
C#Cc1ccc(CNC(=O)[C@@H]2C[C@@H](O)CN2C(=O)[C@@H](NC(=O)CN2CCC(N3CC4(CC(N5CCN6c7cc(-c8ccccc8O)nnc7NC[C@H]6C5)C4)C3)CC2)C(C)(C)C)cc1 [I-252, (2S,4R)—N-(4-ethynylbenzyl)-4-hydroxy-1-((S)-2-(2-(4-(6-((S)-2-(2-hydroxyphenyl)-6a,7,9,10-tetrahydro-5H-pyrazino[1′,2′:4,5]pyrazino[2,3-c]pyridazin-8(6H)-yl)-2-azaspiro[3.3]heptan-2-yl)piperidin-1-yl)acetamido)-3,3-dimethylbutanoyl)pyrrolidine-2-carboxamide]	> 90	50 to 100	> 90	1 to 10	> 90	< 1	D (D (<10 fold))			
